US20030228395A1, “Isotropic transparent structured fluids” (Archer-Daniels Midland Company, priority 2002, published 2003)

Tests used:
[1] = Effect of pH on stability of micro-emulsions; format: physicochemical; conditions: maximum tocopherol acetate, line 6.4 of Example 1, dilutions 50%, 60%, 70%, 80%; buffer pH 3.4, 3.8, 5.4, 7.0, 8.6 replacing water
From the text: A buffer of different pH values (3.4, 3.8, 5.4, 7.0 and 8.6) replaced the water in the aqueous phase.

[2] = From the text: FIG. 6. […] The values assign the maximum amount of vitamin E that can be solubilized as a wt/wt percentage of the total micro-emulsion weight.
The maximum amount of vitamin E solubilized was compared among the different forms of vitamin E along line 6:4 in the five-component system of D-limonene/ethanol (1/1) as the oil phase, TWEEN 60 as surfactant, and water/1,2-propanediol (1/1) as the aqueous phase, in order to obtain insight into the difference in their interfacial behavior (FIG. 6).

For `CC(=O)Oc1c(C)c(C)c2c(c1C)CCC(C)(CCC[C@H](C)CCC[C@H](C)CCCC(C)C)O2` (stereo partly drawn) [Tocopherol Acetate, tocopherol acetate], the “stability of micro-emulsions at different pH” value [1] was “stable for over two months”.
In the case of `Cc1c(C)c2c(c(C)c1O)CC[C@@](C)(CCC[C@H](C)CCC[C@H](C)CCCC(C)C)O2` [alpha-tocopherol], the “solubilization capacity along the dilution line” value [2] is reported as “two main dramatic decreases in solubilization, after which a stabilization in solubilization is maintained” and the “solubilization capacity when D-limonene was replaced by triacetin” value [2] is reported as “increased along all of the dilution line”.
